ChEMBL document CHEMBL4507292 (2021)

Tests used:
[1] = target: RAC-alpha serine/threonine-protein kinase (Homo sapiens) (UniProt P31749); conditions: Compound concentration 1000.0 nM
[2] = target: Tyrosine-protein kinase Blk (Homo sapiens) (UniProt P51451); conditions: Compound concentration 1000.0 nM
[3] = target: Cyclin-dependent kinase 4 (Homo sapiens) (UniProt P11802); conditions: Compound concentration 1000.0 nM
[4] = target: Epithelial discoidin domain-containing receptor 1 (Homo sapiens) (UniProt Q08345); conditions: Compound concentration 1000.0 nM
[5] = target: Myotonin-protein kinase (Homo sapiens) (UniProt Q09013); conditions: Compound concentration 1000.0 nM
[6] = tested on: Epidermal growth factor receptor (Homo sapiens), P00533 [UNDEFINED MUTATION]; conditions: Compound concentration 1000.0 nM
[7] = tested on: Epidermal growth factor receptor (Homo sapiens), P00533 [UNDEFINED MUTATION]; conditions: Compound concentration 1000.0 nM; remark: listed apart in the source
[8] = tested on: Receptor-type tyrosine-protein kinase FLT3 (Homo sapiens), P36888 [D835V]; conditions: Compound concentration 1000.0 nM
[9] = tested on: eIF-2-alpha kinase GCN2 (Homo sapiens), Q9P2K8 [S808G]; conditions: Compound concentration 1000.0 nM
[10] = target: Beta-adrenergic receptor kinase 1 (Homo sapiens) (UniProt P25098); conditions: Compound concentration 1000.0 nM
[11] = target: Mast/stem cell growth factor receptor Kit (Homo sapiens) (UniProt P10721); conditions: Compound concentration 1000.0 nM
[12] = target: Leucine-rich repeat serine/threonine-protein kinase 2 (Homo sapiens) (UniProt Q5S007); conditions: Compound concentration 1000.0 nM
[13] = target: MAP/microtubule affinity-regulating kinase 3 (Homo sapiens) (UniProt P27448); conditions: Compound concentration 1000.0 nM
[14] = target: MAP kinase-interacting serine/threonine-protein kinase 1 (Homo sapiens) (UniProt Q9BUB5); conditions: Compound concentration 1000.0 nM
[15] = target: Serine/threonine-protein kinase 26 (Homo sapiens) (UniProt Q9P289); conditions: Compound concentration 1000.0 nM
[16] = target: Muscle, skeletal receptor tyrosine-protein kinase (Homo sapiens) (UniProt O15146); conditions: Compound concentration 1000.0 nM
[17] = target: Serine/threonine-protein kinase Nek11 (Homo sapiens) (UniProt Q8NG66); conditions: Compound concentration 1000.0 nM
[18] = target: Cyclin-dependent kinase 18 (Homo sapiens) (UniProt Q07002); conditions: Compound concentration 1000.0 nM
[19] = tested on: Phosphatidylinositol 4,5-bisphosphate 3-kinase catalytic subunit alpha isoform (Homo sapiens), P42336 [I800L]; conditions: Compound concentration 1000.0 nM
[20] = tested on: Phosphatidylinositol 4,5-bisphosphate 3-kinase catalytic subunit alpha isoform (Homo sapiens), P42336 [M1043I]; conditions: Compound concentration 1000.0 nM
[21] = target: Serine/threonine-protein kinase PLK1 (Homo sapiens) (UniProt P53350); conditions: Compound concentration 1000.0 nM
[22] = target: Serine/threonine-protein kinase PRP4 homolog (Homo sapiens) (UniProt Q13523); conditions: Compound concentration 1000.0 nM
[23] = target: Ribosomal protein S6 kinase alpha-3 (Homo sapiens) (UniProt P51812); conditions: Compound concentration 1000.0 nM
[24] = target: Serine/threonine-protein kinase TAO2 (Homo sapiens) (UniProt Q9UL54); conditions: Compound concentration 1000.0 nM
[25] = target: Tyrosine-protein kinase receptor Tie-1 (Homo sapiens) (UniProt P35590); conditions: Compound concentration 1000.0 nM
[26] = target: Testis-specific serine/threonine-protein kinase 1 (Homo sapiens) (UniProt Q9BXA7); conditions: Compound concentration 1000.0 nM
[27] = target: Vascular endothelial growth factor receptor 2 (Homo sapiens) (UniProt P35968); conditions: Compound concentration 1000.0 nM
[28] = target: Serine/threonine-protein kinase WNK2 (Homo sapiens) (UniProt Q9Y3S1); conditions: Compound concentration 1000.0 nM
[29] = target: Serine/threonine-protein kinase WNK4 (Homo sapiens) (UniProt Q96J92); conditions: Compound concentration 1000.0 nM
[30] = target: T1, 5-hydroxytryptamine receptor 3A (Homo sapiens) (UniProt P46098); conditions: Compound concentration 10.0 uM
T1 sequence (whole entry): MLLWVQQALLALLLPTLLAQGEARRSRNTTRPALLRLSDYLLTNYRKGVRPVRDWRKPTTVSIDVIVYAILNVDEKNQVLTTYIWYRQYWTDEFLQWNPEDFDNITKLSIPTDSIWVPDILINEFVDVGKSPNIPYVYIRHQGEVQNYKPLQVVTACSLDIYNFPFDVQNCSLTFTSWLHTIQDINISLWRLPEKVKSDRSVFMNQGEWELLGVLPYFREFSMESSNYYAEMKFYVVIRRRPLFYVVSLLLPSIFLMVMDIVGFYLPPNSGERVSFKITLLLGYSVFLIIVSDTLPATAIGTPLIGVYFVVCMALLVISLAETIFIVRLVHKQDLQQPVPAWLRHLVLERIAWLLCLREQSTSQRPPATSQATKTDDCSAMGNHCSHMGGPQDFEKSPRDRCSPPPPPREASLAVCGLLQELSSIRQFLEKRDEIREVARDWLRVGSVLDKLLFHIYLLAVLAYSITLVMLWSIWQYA

[31] = target: T2, Alpha-2B adrenergic receptor (Homo sapiens) (UniProt P18089); conditions: Compound concentration 10.0 uM
T2 sequence (whole entry): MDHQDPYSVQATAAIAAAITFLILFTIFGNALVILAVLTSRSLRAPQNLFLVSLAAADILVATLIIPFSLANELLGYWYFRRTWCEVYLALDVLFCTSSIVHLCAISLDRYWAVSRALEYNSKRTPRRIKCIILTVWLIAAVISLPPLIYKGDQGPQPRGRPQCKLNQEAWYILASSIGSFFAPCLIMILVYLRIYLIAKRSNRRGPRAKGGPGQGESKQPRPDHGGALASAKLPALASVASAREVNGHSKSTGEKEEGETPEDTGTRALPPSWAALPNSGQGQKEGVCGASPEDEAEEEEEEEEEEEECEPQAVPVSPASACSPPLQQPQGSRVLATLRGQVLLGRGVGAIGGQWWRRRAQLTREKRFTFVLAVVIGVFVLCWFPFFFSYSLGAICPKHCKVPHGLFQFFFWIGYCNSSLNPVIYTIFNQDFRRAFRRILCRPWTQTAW

[32] = target: Muscarinic acetylcholine receptor M3 (Homo sapiens) (UniProt P20309); conditions: Compound concentration 10.0 uM

Epidermal growth factor receptor (Homo sapiens), P00533 [UNDEFINED MUTATION], sequence (P00533 whole entry, looked up, stated change not applied): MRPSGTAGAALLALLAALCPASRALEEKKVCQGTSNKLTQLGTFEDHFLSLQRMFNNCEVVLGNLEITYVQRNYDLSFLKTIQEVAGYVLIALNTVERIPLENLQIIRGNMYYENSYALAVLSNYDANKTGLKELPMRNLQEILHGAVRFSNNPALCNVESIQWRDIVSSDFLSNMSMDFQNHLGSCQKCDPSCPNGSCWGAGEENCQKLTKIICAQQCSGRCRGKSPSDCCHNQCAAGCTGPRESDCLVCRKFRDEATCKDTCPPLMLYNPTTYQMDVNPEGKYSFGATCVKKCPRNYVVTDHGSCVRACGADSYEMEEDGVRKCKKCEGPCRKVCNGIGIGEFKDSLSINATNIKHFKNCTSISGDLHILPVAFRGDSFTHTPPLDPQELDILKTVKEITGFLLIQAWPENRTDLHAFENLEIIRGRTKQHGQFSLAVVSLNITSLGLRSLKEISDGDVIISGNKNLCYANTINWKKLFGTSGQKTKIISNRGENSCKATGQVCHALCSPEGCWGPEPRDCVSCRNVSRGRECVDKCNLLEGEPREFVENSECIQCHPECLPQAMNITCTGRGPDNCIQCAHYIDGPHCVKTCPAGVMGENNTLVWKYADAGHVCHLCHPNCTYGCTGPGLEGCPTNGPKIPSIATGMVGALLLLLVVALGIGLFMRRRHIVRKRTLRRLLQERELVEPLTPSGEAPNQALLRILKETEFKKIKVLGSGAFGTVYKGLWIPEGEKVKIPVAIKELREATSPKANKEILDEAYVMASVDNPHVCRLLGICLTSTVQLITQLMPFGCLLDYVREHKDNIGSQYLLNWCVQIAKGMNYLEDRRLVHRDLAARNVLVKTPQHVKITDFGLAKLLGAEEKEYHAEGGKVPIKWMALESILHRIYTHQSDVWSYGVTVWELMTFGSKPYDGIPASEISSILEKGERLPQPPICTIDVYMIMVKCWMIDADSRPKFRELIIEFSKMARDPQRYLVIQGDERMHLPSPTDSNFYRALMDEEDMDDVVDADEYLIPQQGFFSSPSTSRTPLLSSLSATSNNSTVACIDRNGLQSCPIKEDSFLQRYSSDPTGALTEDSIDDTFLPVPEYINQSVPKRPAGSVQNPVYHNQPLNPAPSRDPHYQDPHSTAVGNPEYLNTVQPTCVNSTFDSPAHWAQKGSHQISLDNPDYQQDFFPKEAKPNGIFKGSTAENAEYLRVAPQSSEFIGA
MAP kinase-interacting serine/threonine-protein kinase 1 (Homo sapiens), sequence (Q9BUB5 whole entry, looked up): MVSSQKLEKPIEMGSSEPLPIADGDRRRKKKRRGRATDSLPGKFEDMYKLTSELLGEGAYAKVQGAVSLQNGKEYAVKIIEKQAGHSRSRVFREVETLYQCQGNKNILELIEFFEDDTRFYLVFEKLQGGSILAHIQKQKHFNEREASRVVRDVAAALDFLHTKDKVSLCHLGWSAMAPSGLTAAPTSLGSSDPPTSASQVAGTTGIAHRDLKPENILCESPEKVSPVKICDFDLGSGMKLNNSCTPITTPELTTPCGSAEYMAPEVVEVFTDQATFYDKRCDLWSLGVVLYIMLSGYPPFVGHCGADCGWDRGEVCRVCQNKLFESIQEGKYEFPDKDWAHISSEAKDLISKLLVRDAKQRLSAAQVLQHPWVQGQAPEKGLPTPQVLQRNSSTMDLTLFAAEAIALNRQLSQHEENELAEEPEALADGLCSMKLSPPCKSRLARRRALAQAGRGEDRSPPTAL
Serine/threonine-protein kinase WNK4 (Homo sapiens), sequence (Q96J92 whole entry): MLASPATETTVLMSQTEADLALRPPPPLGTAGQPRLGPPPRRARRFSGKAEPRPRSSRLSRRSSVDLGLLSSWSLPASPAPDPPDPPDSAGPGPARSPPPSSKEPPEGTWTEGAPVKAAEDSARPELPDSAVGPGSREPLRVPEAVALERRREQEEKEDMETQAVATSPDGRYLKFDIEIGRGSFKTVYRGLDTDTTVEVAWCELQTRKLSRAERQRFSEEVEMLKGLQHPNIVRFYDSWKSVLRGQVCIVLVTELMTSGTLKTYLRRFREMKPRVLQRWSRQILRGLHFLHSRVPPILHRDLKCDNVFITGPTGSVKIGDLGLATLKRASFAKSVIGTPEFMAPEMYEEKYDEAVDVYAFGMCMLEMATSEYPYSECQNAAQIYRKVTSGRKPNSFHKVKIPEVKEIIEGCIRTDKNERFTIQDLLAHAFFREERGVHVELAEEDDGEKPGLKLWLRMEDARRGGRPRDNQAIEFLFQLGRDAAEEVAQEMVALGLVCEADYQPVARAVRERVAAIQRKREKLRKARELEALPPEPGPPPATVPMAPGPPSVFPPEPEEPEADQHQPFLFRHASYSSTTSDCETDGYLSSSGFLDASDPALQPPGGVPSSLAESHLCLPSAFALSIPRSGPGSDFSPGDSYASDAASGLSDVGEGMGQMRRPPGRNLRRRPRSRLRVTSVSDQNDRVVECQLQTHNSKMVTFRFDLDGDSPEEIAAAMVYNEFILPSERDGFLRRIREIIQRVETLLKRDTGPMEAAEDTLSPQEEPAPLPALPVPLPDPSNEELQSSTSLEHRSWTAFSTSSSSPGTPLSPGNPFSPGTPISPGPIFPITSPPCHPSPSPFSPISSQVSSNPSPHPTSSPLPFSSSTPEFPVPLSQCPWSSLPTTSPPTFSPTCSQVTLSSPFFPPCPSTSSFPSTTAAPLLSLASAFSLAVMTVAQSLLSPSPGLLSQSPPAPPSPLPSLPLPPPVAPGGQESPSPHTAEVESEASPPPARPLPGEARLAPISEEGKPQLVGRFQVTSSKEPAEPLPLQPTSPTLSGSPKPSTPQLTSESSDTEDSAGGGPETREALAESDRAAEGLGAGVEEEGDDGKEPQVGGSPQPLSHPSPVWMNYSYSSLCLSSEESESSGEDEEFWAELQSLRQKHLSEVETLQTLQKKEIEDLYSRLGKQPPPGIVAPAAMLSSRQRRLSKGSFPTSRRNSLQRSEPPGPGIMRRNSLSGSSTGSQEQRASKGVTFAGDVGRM
Vascular endothelial growth factor receptor 2 (Homo sapiens), sequence (P35968 whole entry): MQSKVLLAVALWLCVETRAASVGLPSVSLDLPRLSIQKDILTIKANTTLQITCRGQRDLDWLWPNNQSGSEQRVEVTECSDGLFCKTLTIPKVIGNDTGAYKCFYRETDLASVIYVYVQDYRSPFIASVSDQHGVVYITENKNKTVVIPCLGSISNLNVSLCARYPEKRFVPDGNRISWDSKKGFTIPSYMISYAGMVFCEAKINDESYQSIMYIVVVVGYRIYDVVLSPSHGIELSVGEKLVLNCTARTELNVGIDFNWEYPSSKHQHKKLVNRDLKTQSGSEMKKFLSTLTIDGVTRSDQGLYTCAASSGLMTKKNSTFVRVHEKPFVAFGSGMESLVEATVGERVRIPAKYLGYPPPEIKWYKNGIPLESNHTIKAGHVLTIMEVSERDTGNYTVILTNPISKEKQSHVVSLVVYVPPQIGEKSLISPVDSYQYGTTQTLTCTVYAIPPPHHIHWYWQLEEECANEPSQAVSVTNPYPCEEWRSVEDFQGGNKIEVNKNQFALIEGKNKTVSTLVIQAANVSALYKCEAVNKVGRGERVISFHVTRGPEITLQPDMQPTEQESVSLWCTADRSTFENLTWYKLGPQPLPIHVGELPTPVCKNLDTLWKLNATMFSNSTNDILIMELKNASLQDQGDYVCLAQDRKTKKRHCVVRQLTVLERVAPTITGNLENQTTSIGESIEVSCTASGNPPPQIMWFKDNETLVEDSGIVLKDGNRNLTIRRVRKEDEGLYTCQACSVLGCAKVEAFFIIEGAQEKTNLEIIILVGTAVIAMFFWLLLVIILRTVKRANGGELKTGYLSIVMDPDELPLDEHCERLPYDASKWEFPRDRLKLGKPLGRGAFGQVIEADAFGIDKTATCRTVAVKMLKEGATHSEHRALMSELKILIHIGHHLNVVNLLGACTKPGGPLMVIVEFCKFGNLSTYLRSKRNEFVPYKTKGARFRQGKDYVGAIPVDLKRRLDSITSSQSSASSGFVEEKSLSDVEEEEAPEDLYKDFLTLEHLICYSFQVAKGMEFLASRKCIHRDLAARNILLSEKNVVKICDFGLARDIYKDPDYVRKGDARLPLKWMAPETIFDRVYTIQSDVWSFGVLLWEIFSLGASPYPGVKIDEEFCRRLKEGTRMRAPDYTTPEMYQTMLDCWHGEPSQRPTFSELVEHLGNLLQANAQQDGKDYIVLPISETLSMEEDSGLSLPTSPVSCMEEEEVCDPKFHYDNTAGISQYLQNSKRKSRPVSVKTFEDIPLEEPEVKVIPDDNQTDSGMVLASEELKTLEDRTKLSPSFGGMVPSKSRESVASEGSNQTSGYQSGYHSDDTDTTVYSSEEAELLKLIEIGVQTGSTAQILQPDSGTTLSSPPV
RAC-alpha serine/threonine-protein kinase (Homo sapiens), sequence (P31749 whole entry): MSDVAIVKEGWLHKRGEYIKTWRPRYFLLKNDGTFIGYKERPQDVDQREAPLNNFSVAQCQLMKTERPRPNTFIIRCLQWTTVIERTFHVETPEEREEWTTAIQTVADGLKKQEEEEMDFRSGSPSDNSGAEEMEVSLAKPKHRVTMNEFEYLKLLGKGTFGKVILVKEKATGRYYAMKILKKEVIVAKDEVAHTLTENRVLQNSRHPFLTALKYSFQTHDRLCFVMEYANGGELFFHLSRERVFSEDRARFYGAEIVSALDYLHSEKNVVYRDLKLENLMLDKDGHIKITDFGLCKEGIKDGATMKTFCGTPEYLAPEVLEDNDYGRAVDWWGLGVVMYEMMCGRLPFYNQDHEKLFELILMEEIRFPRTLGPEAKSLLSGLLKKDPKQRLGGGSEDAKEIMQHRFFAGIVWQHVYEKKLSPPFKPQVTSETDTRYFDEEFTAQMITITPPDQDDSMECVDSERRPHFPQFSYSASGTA
Cyclin-dependent kinase 4 (Homo sapiens), sequence (P11802 whole entry, the tested form may be a part): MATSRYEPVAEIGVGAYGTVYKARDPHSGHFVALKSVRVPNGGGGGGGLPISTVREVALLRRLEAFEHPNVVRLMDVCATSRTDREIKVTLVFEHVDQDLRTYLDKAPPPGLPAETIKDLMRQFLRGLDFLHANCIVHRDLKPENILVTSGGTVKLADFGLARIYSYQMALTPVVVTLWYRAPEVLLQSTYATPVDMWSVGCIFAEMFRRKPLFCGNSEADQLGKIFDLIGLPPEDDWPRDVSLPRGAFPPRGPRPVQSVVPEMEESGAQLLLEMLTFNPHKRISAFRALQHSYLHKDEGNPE

Cc1c(C(=O)O)cc(-c2ccc(C3CCNCC3)cc2)c2ccc(-c3ccc(C(F)(F)F)cc3)cc12 [PPTN-NC]
residual activity [1]: 100%
residual activity [2]: 100%
residual activity [3]: 100%
residual activity [4]: 100%
residual activity [5]: 86%
residual activity [6]: 100%
residual activity [7]: 100%
residual activity [8]: 100%
residual activity [9]: 100%
residual activity [10]: 100%
residual activity [11]: 100%
residual activity [12]: 100%
residual activity [13]: 100%
residual activity [14]: 100%
residual activity [15]: 100%
residual activity [16]: 100%
residual activity [17]: 100%
residual activity [18]: 100%
residual activity [19]: 100%
residual activity [20]: 100%
residual activity [21]: 94%
residual activity [22]: 100%
residual activity [23]: 80%
residual activity [24]: 100%
residual activity [25]: 100%
residual activity [26]: 100%
residual activity [27]: 100%
residual activity [28]: 100%
residual activity [29]: 100%
inhibition [30]: 4.62%
inhibition [31]: 79%
inhibition [32]: 0.06%

O=C(O)c1cc(-c2ccc(C3CCNCC3)cc2)c2ccc(-c3ccc(C(F)(F)F)cc3)cc2c1 [PPTN]
residual activity [1]: 99%
residual activity [2]: 86%
residual activity [3]: 100%
residual activity [4]: 100%
residual activity [5]: 100%
residual activity [6]: 100%
residual activity [7]: 100%
residual activity [8]: 100%
residual activity [9]: 100%
residual activity [10]: 100%
residual activity [11]: 100%
residual activity [12]: 100%
residual activity [13]: 100%
residual activity [14]: 100%
residual activity [15]: 100%
residual activity [16]: 90%
residual activity [17]: 100%
residual activity [18]: 100%
residual activity [19]: 93%
residual activity [20]: 100%
residual activity [21]: 88%
residual activity [22]: 100%
residual activity [23]: 80%
residual activity [24]: 100%
residual activity [25]: 100%
residual activity [26]: 100%
residual activity [27]: 100%
residual activity [28]: 100%
residual activity [29]: 100%
inhibition [30]: 4.14%
inhibition [31]: 85.4%
inhibition [32]: 9.47%
